# Laboratory results from patent publication US20240180900A1, “COMPOUNDS AND METHODS FOR THE TARGETED DEGRADATION OF ANDROGEN RECEPTOR” (Arvinas Operations, Inc., priority 2022, published 2024).
# Read-outs that look alike come from different tables or passages of the source.
# Key:
# [1] = tested on: VCaP tumor xenograft; experiment: VCaP tumor xenograft study in intact (non-castrated) mice; format: in vivo, mouse
# Excerpt: To mimic higher androgen levels found in an incomplete testosterone suppression environment, intact (non-castrated) mice were employed for a VCaP tumor xenograft study.
# [2] = molecular target: T1, AR (Homo sapiens, UniProt P10275); experiment: selectivity screening panel: AR binding; details: 1 μM
# T1 sequence (P10275 1-920): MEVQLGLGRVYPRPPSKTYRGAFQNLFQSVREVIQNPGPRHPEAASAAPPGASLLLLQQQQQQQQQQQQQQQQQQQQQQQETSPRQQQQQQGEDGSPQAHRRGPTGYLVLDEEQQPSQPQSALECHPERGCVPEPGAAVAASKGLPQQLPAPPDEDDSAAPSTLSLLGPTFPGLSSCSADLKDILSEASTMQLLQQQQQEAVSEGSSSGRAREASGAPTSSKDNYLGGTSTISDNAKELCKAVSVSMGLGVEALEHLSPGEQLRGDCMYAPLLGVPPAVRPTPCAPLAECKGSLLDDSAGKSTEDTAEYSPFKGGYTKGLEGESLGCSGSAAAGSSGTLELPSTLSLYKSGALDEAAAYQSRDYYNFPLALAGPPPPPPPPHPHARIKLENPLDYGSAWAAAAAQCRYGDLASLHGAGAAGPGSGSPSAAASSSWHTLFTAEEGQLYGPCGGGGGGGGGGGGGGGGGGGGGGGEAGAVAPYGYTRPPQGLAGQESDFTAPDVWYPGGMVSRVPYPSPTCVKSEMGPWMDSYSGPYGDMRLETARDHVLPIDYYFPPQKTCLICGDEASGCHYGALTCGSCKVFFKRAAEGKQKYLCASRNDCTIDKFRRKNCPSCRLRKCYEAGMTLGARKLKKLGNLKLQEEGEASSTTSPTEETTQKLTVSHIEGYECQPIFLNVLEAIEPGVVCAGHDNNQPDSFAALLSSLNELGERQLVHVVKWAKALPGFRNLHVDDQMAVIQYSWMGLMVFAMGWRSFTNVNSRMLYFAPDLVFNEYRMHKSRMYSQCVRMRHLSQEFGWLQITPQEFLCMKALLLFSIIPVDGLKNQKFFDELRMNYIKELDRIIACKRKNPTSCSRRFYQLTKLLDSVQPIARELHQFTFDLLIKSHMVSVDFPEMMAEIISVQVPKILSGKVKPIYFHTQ
# Description: Compound A was tested at 1 μM in a screening study to assess the interaction of Compound A with a panel of 44 targets, including receptors, ion channels, transporters, and enzymes. Any effect greater than 50% of the positive control for a target was considered to represent an interaction of the test compound with the target.
# [3] = preliminary PK in mCRPC participants (Phase 1/2); format: in vivo, human
# Description: A chiral bioanalytical method by LC-MS/MS has been developed to characterize the PK of Compound A. Pharmacokinetic analyses were performed using noncompartmental analysis methods.
# Mean steady state peak/trough ratio is less than 2, which indicates minimal fluctuation in plasma concentrations once steady state is achieved. Steady state occurs within 3 weeks into treatment.
# An ongoing, open-label, Phase 1/2 study in male participants with mCRPC. The Phase 1 dose escalation investigated Compound A doses of 20 mg, 40 mg, 80 mg, 100 mg, 160 mg, 200 mg, 320 mg, 400 mg, 480 mg, and 500 mg administered QD. […] Doses of 100 mg QD and 300 mg QD were selected for the Phase 2 cohort expansion.
# [4] = tested on: VCaP tumor xenograft; experiment: castrated mouse VCaP xenograft model, tumor growth inhibition; format: in vivo; details: castrated mice
# Description: Treatment groups (n=10 per group) were compared by one-way analysis of variance (ANOVA). Note: ns: not significant, *: p≤0.05, **: p≤0.01, ***: p≤0.001.
# The anti-tumor growth effects of Compound A in vivo were evaluated in the castrated mouse VCaP xenograft model. Briefly, 6- to 8-week-old male CB17/scid mice were implanted with 3×10^6 VCaP tumor cells in the flank region. Once the tumors reached a volume of approximately 100 mm^3, the mice were surgically castrated.
compound,measurement,setting,value
"COc1cc(O[C@H]2C(C)(C)[C@H](NC(=O)c3ccc(N4CCC(CN5CCN(c6ccc(C(=O)N[C@H]7CCC(=O)NC7=O)c(F)c6)CC5)CC4)cc3)C2(C)C)ccc1C#N [Compound A, 4-(4-((1-(4-(((1R,3R)-3-(4-cyano-3-methoxyphenoxy)-2,2,4,4-tetramethylcyclobutyl)carbamoyl)phenyl)piperidin-4-yl)methyl)piperazin-1-yl)-N—((S)-2,6-dioxopiperidin-3-yl)-2-fluorobenzamide]",tumor growth inhibition (TGI),[1]; 1 mg/kg/day orally QD for 21 days,34%
same,tumor growth inhibition (TGI),[1]; 3 mg/kg/day orally QD for 21 days,74%
same,tumor growth inhibition (TGI),[1]; 10 mg/kg/day orally QD for 21 days,98%
same,"binding to AR, % of positive control testosterone",[2],98.6%
same,Mean steady state peak/trough ratio,[3]; QD dosing,less than 2
same,time to steady state,[3]; QD dosing,≤ 3 weeks
same,AUC(0-t),"[3]; human, plasma, oral, 20 mg, 20 mg QD, individual value (n = 1), read-out: AUC0-24 Day 1",178 ng·h/mL
same,AUC(0-t),"[3]; human, plasma, oral, 20 mg, 20 mg QD, individual value (n = 1), read-out: AUC0-24 Day 21",997 ng·h/mL
same,Cmax,"[3]; human, plasma, oral, 20 mg, 20 mg QD, individual value (n = 1), read-out: Cmax Day 1",11.1 ng/mL
same,Cmax,"[3]; human, plasma, oral, 20 mg, 20 mg QD, individual value (n = 1), read-out: Cmax Day 21",44.1 ng/mL
same,AUC(0-t),"[3]; human, plasma, oral, 40 mg, 40 mg QD, individual value (n = 1), read-out: AUC0-24 Day 1",314 ng·h/mL
same,AUC(0-t),"[3]; human, plasma, oral, 40 mg, 40 mg QD, individual value (n = 1), read-out: AUC0-24 Day 21",1300 ng·h/mL
same,Cmax,"[3]; human, plasma, oral, 40 mg, 40 mg QD, individual value (n = 1), read-out: Cmax Day 1",19.1 ng/mL
same,Cmax,"[3]; human, plasma, oral, 40 mg, 40 mg QD, individual value (n = 1), read-out: Cmax Day 21",60.3 ng/mL
same,AUC(0-t),"[3]; human, plasma, oral, 80 mg, 80 mg QD, individual value (n = 1), read-out: AUC0-24 Day 1",432 ng·h/mL
same,AUC(0-t),"[3]; human, plasma, oral, 80 mg, 80 mg QD, individual value (n = 1), read-out: AUC0-24 Day 21",3110 ng·h/mL
same,Cmax,"[3]; human, plasma, oral, 80 mg, 80 mg QD, individual value (n = 1), read-out: Cmax Day 1",22.2 ng/mL
same,Cmax,"[3]; human, plasma, oral, 80 mg, 80 mg QD, individual value (n = 1), read-out: Cmax Day 21",139 ng/mL
same,AUC(0-t),"[3]; male, human, plasma, oral, 100 mg, 100 mg QD (N=6), Cycle 1 Day 21, read-out: mean steady-state AUC0-24",4610 ng·h/mL
same,AUC(0-t),"[3]; male, human, plasma, oral, 100 mg, 100 mg QD, Mean (CV %), read-out: AUC0-24 Day 1",816 ng·h/mL
same,AUC(0-t),"[3]; male, human, plasma, oral, 100 mg, 100 mg QD, Mean (CV %), read-out: AUC0-24 Day 21",4610 ng·h/mL
same,Cmax,"[3]; male, human, plasma, oral, 100 mg, 100 mg QD, Mean (CV %), read-out: Cmax Day 1",45.1 ng/mL
same,Cmax,"[3]; male, human, plasma, oral, 100 mg, 100 mg QD, Mean (CV %), read-out: Cmax Day 21",233 ng/mL
same,AUC(0-t),"[3]; male, human, plasma, oral, 160 mg, 160 mg QD, Mean (CV %), read-out: AUC0-24 Day 1",2050 ng·h/mL
same,AUC(0-t),"[3]; male, human, plasma, oral, 160 mg, 160 mg QD, Mean (CV %), read-out: AUC0-24 Day 21",8450 ng·h/mL
same,Cmax,"[3]; male, human, plasma, oral, 160 mg, 160 mg QD, Mean (CV %), read-out: Cmax Day 1",125 ng/mL
same,Cmax,"[3]; male, human, plasma, oral, 160 mg, 160 mg QD, Mean (CV %), read-out: Cmax Day 21",445 ng/mL
same,AUC(0-t),"[3]; male, human, plasma, oral, 200 mg, 200 mg QD, Mean (CV %), read-out: AUC0-24 Day 1",1830 ng·h/mL
same,AUC(0-t),"[3]; male, human, plasma, oral, 200 mg, 200 mg QD, Mean (CV %), read-out: AUC0-24 Day 21",11500 ng·h/mL
same,Cmax,"[3]; male, human, plasma, oral, 200 mg, 200 mg QD, Mean (CV %), read-out: Cmax Day 1",110 ng/mL
same,Cmax,"[3]; male, human, plasma, oral, 200 mg, 200 mg QD, Mean (CV %), read-out: Cmax Day 21",559 ng/mL
same,AUC(0-t),"[3]; male, human, plasma, oral, 300 mg, 300 mg QD, Mean (CV %), read-out: AUC0-24 Day 1",2220 ng·h/mL
same,AUC(0-t),"[3]; male, human, plasma, oral, 300 mg, 300 mg QD, Mean (CV %), read-out: AUC0-24 Day 21",14900 ng·h/mL
same,Cmax,"[3]; male, human, plasma, oral, 300 mg, 300 mg QD, Mean (CV %), read-out: Cmax Day 1",119 ng/mL
same,Cmax,"[3]; male, human, plasma, oral, 300 mg, 300 mg QD, Mean (CV %), read-out: Cmax Day 21",672 ng/mL
same,AUC(0-t),"[3]; male, human, plasma, oral, 320 mg, 320 mg QD, Mean (CV %), read-out: AUC0-24 Day 1",3990 ng·h/mL
same,AUC(0-t),"[3]; male, human, plasma, oral, 320 mg, 320 mg QD, Mean (CV %), read-out: AUC0-24 Day 21",23100 ng·h/mL
same,Cmax,"[3]; male, human, plasma, oral, 320 mg, 320 mg QD, Mean (CV %), read-out: Cmax Day 1",223 ng/mL
same,Cmax,"[3]; male, human, plasma, oral, 320 mg, 320 mg QD, Mean (CV %), read-out: Cmax Day 21",1070 ng/mL
same,AUC(0-t),"[3]; male, human, plasma, oral, 400 mg, 400 mg QD, Mean (CV %), read-out: AUC0-24 Day 1",3350 ng·h/mL
same,AUC(0-t),"[3]; male, human, plasma, oral, 400 mg, 400 mg QD, Mean (CV %), read-out: AUC0-24 Day 21",11900 ng·h/mL
same,Cmax,"[3]; male, human, plasma, oral, 400 mg, 400 mg QD, Mean (CV %), read-out: Cmax Day 1",232 ng/mL
same,Cmax,"[3]; male, human, plasma, oral, 400 mg, 400 mg QD, Mean (CV %), read-out: Cmax Day 21",526 ng/mL
same,AUC(0-t),"[3]; male, human, plasma, oral, 480 mg, 480 mg QD, Mean (CV %), read-out: AUC0-24 Day 1",2540 ng·h/mL
same,AUC(0-t),"[3]; male, human, plasma, oral, 480 mg, 480 mg QD, Mean (CV %), read-out: AUC0-24 Day 21",12900 ng·h/mL
same,Cmax,"[3]; male, human, plasma, oral, 480 mg, 480 mg QD, Mean (CV %), read-out: Cmax Day 1",145 ng/mL
same,Cmax,"[3]; male, human, plasma, oral, 480 mg, 480 mg QD, Mean (CV %), read-out: Cmax Day 21",644 ng/mL
same,AUC(0-t),"[3]; male, human, plasma, oral, 500 mg, 500 mg QD, Mean (CV %), read-out: AUC0-24 Day 1",3590 ng·h/mL
same,AUC(0-t),"[3]; male, human, plasma, oral, 500 mg, 500 mg QD, Mean (CV %), read-out: AUC0-24 Day 21",15000 ng·h/mL
same,Cmax,"[3]; male, human, plasma, oral, 500 mg, 500 mg QD, Mean (CV %), read-out: Cmax Day 1",203 ng/mL
same,Cmax,"[3]; male, human, plasma, oral, 500 mg, 500 mg QD, Mean (CV %), read-out: Cmax Day 21",703 ng/mL
same,half-life,"[3]; male, human, plasma, oral, QD dosing, mCRPC participants, read-out: effective mean T1/2",3.46 to 4.62 days
same,Tmax,"[3]; male, human, plasma, oral administration, mCRPC participants, read-out: median Tmax",~8 h
same,TGI relative to vehicle control,"[4]; 0.1 mg/kg/day QD for 24 days, statistically insignificant",45%
same,TGI relative to vehicle control,"[4]; 0.3 mg/kg/day QD for 24 days, statistically insignificant",49%
same,TGI relative to vehicle control,[4]; 1 mg/kg/day QD for 24 days,81%
same,TGI relative to vehicle control,"[4]; 3 mg/kg/day QD for 24 days, oral gavage",100%
